Laboratory results reported in patent US6914045B2, “Glycopeptide antibiotics” (Wyeth Holdings Corporation, priority 2001, dated 2005).

How the values were obtained:
Experiment in all cases: in vitro antibacterial evaluation, MIC by broth dilution
Type in all cases: cell-based
Enterococcus sp. = details: broth dilution, 18 hours at 35° C.; for MIC Enterococcus faecalis (ATCC 29212): strain ATCC 29212; for MIC Enterococcus faecalis (GC 2242): strain GC 2242; for MIC Enterococcus faecium (GC 2243): strain GC 2243; for MIC Enterococcus faecalis (GC 2691): strain GC 2691; for MIC Enterococcus faecalis (GC 3059): strain GC 3059; for MIC Enterococcus faecalis (GC 4552): strain GC 4552; for MIC Enterococcus faecalis (GC 4553): strain GC 4553; for MIC Enterococcus faecalis (GC 4554): strain GC 4554; for MIC Enterococcus faecium (GC 4556): strain GC 4556; for MIC Enterococcus faecium (GC 4557): strain GC 4557; for MIC Enterococcus avium (GC 4558): strain GC 4558; for MIC Enterococcus faecalis (GC 6189): strain GC 6189
Summary of the method: (§1)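 Broth dilution per NCCLS M7-A2 in Mueller-Hinton II medium, inoculum 5×10^5 CFU/mL, antibiotic range 64-0.06 μg/mL. MIC taken as lowest concentration inhibiting growth; Gram-positive panel includes recent clinical isolates resistant to methicillin, penicillin and/or vancomycin.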

Escherichia coli = details: for MIC Escherichia coli (ATCC 25922): strain ATCC 25922, 18 hours at 35° C.; for MIC Escherichia coli (GC 4559): strain GC 4559, 18 hours at 35° C.; for MIC Escherichia coli (GC 4560): strain GC 4560, 18 hours at 35° C.
Summary of the method: as §1

Staphylococcus sp. = details: broth dilution, 18 hours at 35° C.; for MIC Staphylococcus aureus (GC 1131): strain GC 1131; for MIC Staphylococcus aureus (ATCC 29213): strain ATCC 29213; for MIC Staphylococcus aureus (GC 3051): strain GC 3051; for MIC Staphylococcus aureus (GC 3053): strain GC 3053; for MIC Staphylococcus aureus (GC 4541): strain GC 4541; for MIC Staphylococcus aureus (GC 4542): strain GC 4542; for MIC Staphylococcus aureus (GC 4544): strain GC 4544; for MIC Staphylococcus aureus (GC 4545): strain GC 4545; for MIC Staphylococcus haemolyticus (GC 4546): strain GC 4546; for MIC Coagulase Negative Staphylococcus (GC 4547): strain GC 4547; for MIC Coagulase Negative Staphylococcus (GC 4548): strain GC 4548; for MIC Coagulase Negative Staphylococcus (GC 4549): strain GC 4549; for MIC Coagulase Negative Staphylococcus (GC 4551): strain GC 4551; for MIC Coagulase Negative Staphylococcus (GC 6257): strain GC 6257
Summary of the method: as §1

Streptococcus sp. = details: broth dilution, 18 hours at 35° C.; for MIC Streptococcus pneumoniae (ATCC 6301): strain ATCC 6301; for MIC Streptococcus pneumoniae (GC 1894): strain GC 1894; for MIC Streptococcus pyogenes (GC 4563): strain GC 4563; for MIC Streptococcus agalactiae (GC 4564): strain GC 4564; for MIC Streptococcus pneumoniae (GC 4565): strain GC 4565
Summary of the method: as §1

CC(c1ccccc1)C1NC(=O)CNC(=O)C(CO)NC(=O)C(C(O)C2CNC(=N)N2C2OC(CO)C(O)C(O)C2O)NC(=O)C(C(O)C2CNC(=N)N2)NC(=O)C(Cc2ccc(OC3OC(CO)C(OC4OC(CO)C(O)C5OC(c6ccc(-c7ccsc7)cc6)OC45)C(O)C3O)cc2)NC1=O (stereo not drawn) [Example 164a]
4 µg/mL: MIC Enterococcus faecium (GC 4557) (Enterococcus sp.; inoculum 5×10^5 CFU/mL) | MIC Enterococcus faecium (GC 4557) (Enterococcus sp.) | MIC Staphylococcus haemolyticus (GC 4546) (Staphylococcus sp.) | MIC Coagulase Negative Staphylococcus (GC 4548) (Staphylococcus sp.) | MIC Coagulase Negative Staphylococcus (GC 4549) (Staphylococcus sp.) | MIC Coagulase Negative Staphylococcus (GC 6257) (Staphylococcus sp.)
16 µg/mL: MIC Enterococcus faecalis (ATCC 29212) (Enterococcus sp.; inoculum 5×10^5 CFU/mL) | MIC Enterococcus faecalis (GC 2242) (Enterococcus sp.; inoculum 5×10^5 CFU/mL) | MIC Enterococcus faecalis (GC 2691) (Enterococcus sp.; inoculum 5×10^5 CFU/mL) | MIC Enterococcus faecalis (GC 3059) (Enterococcus sp.; inoculum 5×10^5 CFU/mL) | MIC Enterococcus faecalis (GC 4552) (Enterococcus sp.; inoculum 5×10^5 CFU/mL) | MIC Enterococcus faecalis (GC 4553) (Enterococcus sp.; inoculum 5×10^5 CFU/mL) | MIC Enterococcus faecalis (GC 4554) (Enterococcus sp.; inoculum 5×10^5 CFU/mL) | MIC Enterococcus faecium (GC 4556) (Enterococcus sp.; inoculum 5×10^5 CFU/mL) | MIC Enterococcus faecalis (GC 6189) (Enterococcus sp.; inoculum 5×10^5 CFU/mL) | MIC Enterococcus faecalis (ATCC 29212) (Enterococcus sp.) | MIC Enterococcus faecalis (GC 2242) (Enterococcus sp.) | MIC Enterococcus faecalis (GC 2691) (Enterococcus sp.) | MIC Enterococcus faecalis (GC 3059) (Enterococcus sp.) | MIC Enterococcus faecalis (GC 4552) (Enterococcus sp.) | MIC Enterococcus faecalis (GC 4553) (Enterococcus sp.) | MIC Enterococcus faecalis (GC 4554) (Enterococcus sp.) | MIC Enterococcus faecium (GC 4556) (Enterococcus sp.) | MIC Enterococcus faecalis (GC 6189) (Enterococcus sp.) | MIC Staphylococcus aureus (GC 4542) (Staphylococcus sp.)
8 µg/mL: MIC Enterococcus faecium (GC 2243) (Enterococcus sp.; inoculum 5×10^5 CFU/mL) | MIC Enterococcus avium (GC 4558) (Enterococcus sp.; inoculum 5×10^5 CFU/mL) | MIC Enterococcus faecium (GC 2243) (Enterococcus sp.) | MIC Enterococcus avium (GC 4558) (Enterococcus sp.) | MIC Escherichia coli (GC 4560) (Escherichia coli) | MIC Staphylococcus aureus (GC 1131) (Staphylococcus sp.; inoculum 5×10^5 CFU/mL) | MIC Staphylococcus aureus (ATCC 29213) (Staphylococcus sp.) | MIC Staphylococcus aureus (GC 1131) (Staphylococcus sp.) | MIC Staphylococcus aureus (GC 3051) (Staphylococcus sp.) | MIC Staphylococcus aureus (GC 3053) (Staphylococcus sp.) | MIC Staphylococcus aureus (GC 4541) (Staphylococcus sp.) | MIC Staphylococcus aureus-SMITH (GC 4543) (Staphylococcus sp.; strain GC 4543) | MIC Staphylococcus aureus (GC 4544) (Staphylococcus sp.) | MIC Staphylococcus aureus (GC 4545) (Staphylococcus sp.) | MIC Coagulase Negative Staphylococcus (GC 4547) (Staphylococcus sp.) | MIC Coagulase Negative Staphylococcus (GC 4551) (Staphylococcus sp.) | MIC Staphylococcus aureus-SMITH (GC 4543) (Staphylococcus sp.; strain SMITH GC 4543)
32 µg/mL: MIC Escherichia coli (ATCC 25922) (Escherichia coli) | MIC Escherichia coli (GC 4559) (Escherichia coli)
0.25 µg/mL: MIC Streptococcus pneumoniae (GC 1894) (Streptococcus sp.; inoculum 5×10^5 CFU/mL) | MIC Streptococcus pneumoniae (GC 1894) (Streptococcus sp.)
0.5 µg/mL: MIC Streptococcus pyogenes (GC 4563) (Streptococcus sp.; inoculum 5×10^5 CFU/mL) | MIC Streptococcus pyogenes (GC 4563) (Streptococcus sp.)
1 µg/mL: MIC Streptococcus pneumoniae (ATCC 6301) (Streptococcus sp.; inoculum 5×10^5 CFU/mL) | MIC Streptococcus agalactiae (GC 4564) (Streptococcus sp.; inoculum 5×10^5 CFU/mL) | MIC Streptococcus pneumoniae (GC 4565) (Streptococcus sp.; inoculum 5×10^5 CFU/mL) | MIC Streptococcus pneumoniae (ATCC 6301) (Streptococcus sp.) | MIC Streptococcus agalactiae (GC 4564) (Streptococcus sp.) | MIC Streptococcus pneumoniae (GC 4565) (Streptococcus sp.)

CC(C)=CCOc1cccc(C2OCC3OC(OC4C(CO)OC(Oc5ccc(CC6NC(=O)C(C(C)c7ccccc7)NC(=O)CNC(=O)C(CO)NC(=O)C(C(O)C7CNC(=N)N7C7OC(CO)C(O)C(O)C7O)NC(=O)C(C(O)C7CNC(=N)N7)NC6=O)cc5)C(O)C4O)C(O)C(O)C3O2)c1 (stereo not drawn) [Example 165]
0.12 µg/mL: MIC Streptococcus pneumoniae (ATCC 6301) (Streptococcus sp.; inoculum 5×10^5 CFU/mL) | MIC Streptococcus pyogenes (GC 4563) (Streptococcus sp.; inoculum 5×10^5 CFU/mL) | MIC Streptococcus pneumoniae (GC 4565) (Streptococcus sp.; inoculum 5×10^5 CFU/mL) | MIC Streptococcus pneumoniae (ATCC 6301) (Streptococcus sp.) | MIC Streptococcus pyogenes (GC 4563) (Streptococcus sp.) | MIC Streptococcus pneumoniae (GC 4565) (Streptococcus sp.)
>64 µg/mL: MIC Escherichia coli (ATCC 25922) (Escherichia coli) | MIC Escherichia coli (GC 4559) (Escherichia coli)
8 µg/mL: MIC Coagulase Negative Staphylococcus (GC 4548) (Staphylococcus sp.) | MIC Coagulase Negative Staphylococcus (GC 4549) (Staphylococcus sp.) | MIC Coagulase Negative Staphylococcus (GC 6257) (Staphylococcus sp.)
1 µg/mL: MIC Streptococcus agalactiae (GC 4564) (Streptococcus sp.; inoculum 5×10^5 CFU/mL) | MIC Streptococcus agalactiae (GC 4564) (Streptococcus sp.)
16 µg/mL: MIC Enterococcus faecalis (ATCC 29212) (Enterococcus sp.; inoculum 5×10^5 CFU/mL) | MIC Enterococcus faecalis (GC 2242) (Enterococcus sp.; inoculum 5×10^5 CFU/mL) | MIC Enterococcus faecium (GC 2243) (Enterococcus sp.; inoculum 5×10^5 CFU/mL) | MIC Enterococcus faecalis (GC 2691) (Enterococcus sp.; inoculum 5×10^5 CFU/mL) | MIC Enterococcus faecalis (GC 3059) (Enterococcus sp.; inoculum 5×10^5 CFU/mL) | MIC Enterococcus faecalis (GC 4552) (Enterococcus sp.; inoculum 5×10^5 CFU/mL) | MIC Enterococcus faecalis (GC 4553) (Enterococcus sp.; inoculum 5×10^5 CFU/mL) | MIC Enterococcus faecium (GC 4556) (Enterococcus sp.; inoculum 5×10^5 CFU/mL) | MIC Enterococcus faecium (GC 4557) (Enterococcus sp.; inoculum 5×10^5 CFU/mL) | MIC Enterococcus avium (GC 4558) (Enterococcus sp.; inoculum 5×10^5 CFU/mL) | MIC Enterococcus faecalis (GC 6189) (Enterococcus sp.; inoculum 5×10^5 CFU/mL) | MIC Enterococcus faecalis (ATCC 29212) (Enterococcus sp.) | MIC Enterococcus faecalis (GC 2242) (Enterococcus sp.) | MIC Enterococcus faecium (GC 2243) (Enterococcus sp.) | MIC Enterococcus faecalis (GC 2691) (Enterococcus sp.) | MIC Enterococcus faecalis (GC 3059) (Enterococcus sp.) | MIC Enterococcus faecalis (GC 4552) (Enterococcus sp.) | MIC Enterococcus faecalis (GC 4553) (Enterococcus sp.) | MIC Enterococcus faecium (GC 4556) (Enterococcus sp.) | MIC Enterococcus faecium (GC 4557) (Enterococcus sp.) | MIC Enterococcus avium (GC 4558) (Enterococcus sp.) | MIC Enterococcus faecalis (GC 6189) (Enterococcus sp.) | MIC Escherichia coli (GC 4560) (Escherichia coli) | MIC Staphylococcus aureus (GC 1131) (Staphylococcus sp.; inoculum 5×10^5 CFU/mL) | MIC Staphylococcus aureus (ATCC 29213) (Staphylococcus sp.) | MIC Staphylococcus aureus (GC 1131) (Staphylococcus sp.) | MIC Staphylococcus aureus (GC 3053) (Staphylococcus sp.) | MIC Staphylococcus aureus (GC 4541) (Staphylococcus sp.) | MIC Staphylococcus aureus (GC 4542) (Staphylococcus sp.) | MIC Staphylococcus aureus-SMITH (GC 4543) (Staphylococcus sp.; strain GC 4543) | MIC Staphylococcus aureus (GC 4544) (Staphylococcus sp.) | MIC Staphylococcus aureus (GC 4545) (Staphylococcus sp.) | MIC Staphylococcus haemolyticus (GC 4546) (Staphylococcus sp.) | MIC Coagulase Negative Staphylococcus (GC 4547) (Staphylococcus sp.) | MIC Coagulase Negative Staphylococcus (GC 4551) (Staphylococcus sp.) | MIC Staphylococcus aureus-SMITH (GC 4543) (Staphylococcus sp.; strain SMITH GC 4543)
32 µg/mL: MIC Enterococcus faecalis (GC 4554) (Enterococcus sp.; inoculum 5×10^5 CFU/mL) | MIC Enterococcus faecalis (GC 4554) (Enterococcus sp.) | MIC Staphylococcus aureus (GC 3051) (Staphylococcus sp.)
<0.06 µg/mL: MIC Streptococcus pneumoniae (GC 1894) (Streptococcus sp.; inoculum 5×10^5 CFU/mL) | MIC Streptococcus pneumoniae (GC 1894) (Streptococcus sp.)
